Laboratory results from patent US11970476B1, “6′-(4-chlorophenyl)-2′-alkoxy-3,4′-bipyridine-3′-carbonitriles as antimicrobial compounds” (KING FAISAL UNIVERSITY, priority 2023, dated 2024).

Assays:
Type in all cases: cell-based
Escherichia coli = test: Agar plate disc-diffusion, antibacterial inhibition zone; settings: DMSO control zone subtracted
Description: (§1) The agar plate disc-diffusion method was applied. Sterilized filter papers (6 mm in diameter) were wetted with 10 μL of a solution of 6′-(4-chlorophenyl)-2′-ethoxy-3,4′-bipyridine-3′-carbonitrile (4) or 6′-(4-chlorophenyl)-2′-methoxy-3,4′-bipyridine-3′-carbonitrile (5) to be tested, containing […], and the discs were allowed to air dry. The discs were then placed onto the surface of agar plates (nutrient agar for bacteria and Sabouraud's dextrose agar for fungi) seeded with the test organism. Each plate contained 15 mL of the agar medium, previously seeded with 0.2 mL of the broth culture of each organism pregrown for 18 hours. The plates were incubated at 37° C. for 48 hours, and 72 hours for fungi. The inhibition zones were measured in mm. Discs impregnated with DMSO were used as a control, and its inhibition zone was subtracted from the tested compound actual inhibition zone.
(§2) The results of the antimicrobial testing can be observed in Tables 1 and 2, below, using ciprofloxacin as a reference.

Staphylococcus aureus = test: as above; settings: DMSO control zone subtracted
Description: as §1, §2

Pseudomonas aeruginosa = test: as above; settings: DMSO control zone subtracted
Description: as §1, §2

Bacillus cereus = test: as above; settings: DMSO control zone subtracted
Description: as §1, §2

Aspergillus flavus = test: Agar plate disc-diffusion, antifungal inhibition zone; settings: 72 hours, DMSO control zone subtracted
Description: as §1, §2

[1] = tested on: Chrysosporium keratinophilum; test: as above; settings: 72 hours, DMSO control zone subtracted
Description: as §1, §2

different microbes = test: Antimicrobial testing, overall statement on Tables 1 and 2; settings: summary of Tables 1 and 2, bacteria and fungi
Description: as §1
Their antibacterial activity was screened against gram positive bacteria namely Bacillus cereus and Staphylococcus aureus and gram-negative bacterial strains namely Pseudomonas aeruginosa and Escherichia coli, while their antifungal activity was screened against Aspergillus flavus and Chrysosporium keratinophilum.

[2] = A = concentration of comp. = 10,000 μL
[3] = B = concentration of comp. = 30,000 μL
[4] = C = concentration of comp. = 50,000 μL

## O=C(O)c1cn(C2CC2)c2cc(N3CCNCC3)c(F)cc2c1=O [Cip., ciprofloxacin, reference compound]
Escherichia coli; [2]
  inhibition zone: 30 mm
Escherichia coli; [3]
  inhibition zone: 39 mm
Escherichia coli; [4]
  inhibition zone: 60 mm
Staphylococcus aureus; [2]
  inhibition zone: 43 mm
Staphylococcus aureus; [3]
  inhibition zone: 44 mm
Staphylococcus aureus; [4]
  inhibition zone: 53 mm
Pseudomonas aeruginosa; [2]
  inhibition zone: 29 mm
Pseudomonas aeruginosa; [3]
  inhibition zone: 30 mm
Pseudomonas aeruginosa; [4]
  inhibition zone: 53 mm
Bacillus cereus; [2]
  inhibition zone: 29 mm
Bacillus cereus; [3]
  inhibition zone: 30 mm
Bacillus cereus; [4]
  inhibition zone: 42 mm
Aspergillus flavus; [2]
  inhibition zone: 29 mm
Aspergillus flavus; [3]
  inhibition zone: 30 mm
Aspergillus flavus; [4]
  inhibition zone: 42 mm
[1]; [2]
  inhibition zone: 29 mm
[1]; [3]
  inhibition zone: 30 mm
[1]; [4]
  inhibition zone: 53 mm

## CCOc1nc(-c2ccc(Cl)cc2)cc(-c2cccnc2)c1C#N [Compound 4, 6′-(4-chlorophenyl)-2′-ethoxy-3,4′-bipyridine-3′-carbonitrile]
Escherichia coli; [2]
  inhibition zone: 27 mm
Escherichia coli; [3]
  inhibition zone: 38 mm
Escherichia coli; [4]
  inhibition zone: 52 mm
Staphylococcus aureus; [2]
  inhibition zone: 15 mm
Staphylococcus aureus; [3]
  inhibition zone: 18 mm
Staphylococcus aureus; [4]
  inhibition zone: 31 mm
Pseudomonas aeruginosa; [2]
  inhibition zone: 25 mm
Pseudomonas aeruginosa; [3]
  inhibition zone: 29 mm
Pseudomonas aeruginosa; [4]
  inhibition zone: 39 mm
Bacillus cereus; [2]
  inhibition zone: 24 mm
Bacillus cereus; [3]
  inhibition zone: 27 mm
Bacillus cereus; [4]
  inhibition zone: 39 mm
Aspergillus flavus; [2]
  inhibition zone: 21 mm
Aspergillus flavus; [3]
  inhibition zone: 26 mm
Aspergillus flavus; [4]
  inhibition zone: 37 mm
[1]; [2]
  inhibition zone: 24 mm
[1]; [3]
  inhibition zone: 29 mm
[1]; [4]
  inhibition zone: 42 mm
Different microbes
  antimicrobial activities (in words): high antimicrobial activities

## COc1nc(-c2ccc(Cl)cc2)cc(-c2cccnc2)c1C#N [Compound 5, 6′-(4-chlorophenyl)-2′-methoxy-3,4′-bipyridine-3′-carbonitrile]
Escherichia coli; [2]
  inhibition zone: 28 mm
Escherichia coli; [3]
  inhibition zone: 37 mm
Escherichia coli; [4]
  inhibition zone: 53 mm
Staphylococcus aureus; [2]
  inhibition zone: 17 mm
Staphylococcus aureus; [3]
  inhibition zone: 24 mm
Staphylococcus aureus; [4]
  inhibition zone: 30 mm
Pseudomonas aeruginosa; [2]
  inhibition zone: 26 mm
Pseudomonas aeruginosa; [3]
  inhibition zone: 30 mm
Pseudomonas aeruginosa; [4]
  inhibition zone: 42 mm
Bacillus cereus; [2]
  inhibition zone: 26 mm
Bacillus cereus; [3]
  inhibition zone: 28 mm
Bacillus cereus; [4]
  inhibition zone: 39 mm
Aspergillus flavus; [2]
  inhibition zone: 25 mm
Aspergillus flavus; [3]
  inhibition zone: 28 mm
Aspergillus flavus; [4]
  inhibition zone: 40 mm
[1]; [2]
  inhibition zone: 23 mm
[1]; [3]
  inhibition zone: 28 mm
[1]; [4]
  inhibition zone: 41 mm
Different microbes
  antimicrobial activities (in words): high antimicrobial activities
